# Laboratory results taken from publication PMC12019328, “Discovery of an ApoE4-targeted small-molecule SirT1 enhancer for the treatment of Alzheimer’s disease” (Scientific Reports, 2025).
# What was measured:
# [1] = target: T1, protein arginine methyltransferase (PRMT) (Homo sapiens, UniProt Q86X55); test: Affinity purification and STRING analysis-based proteomics with SH-SY5Y cell lysates; assay type: binding; conditions: compound clicked to agarose magnetic beads
# T1 construct: proteins from human neuroblastoma SH-SY5Y; endogenous in cells; host or cells: SH-SY5Y human neuroblastoma cell lysate
# T1 sequence (Q86X55 1-608): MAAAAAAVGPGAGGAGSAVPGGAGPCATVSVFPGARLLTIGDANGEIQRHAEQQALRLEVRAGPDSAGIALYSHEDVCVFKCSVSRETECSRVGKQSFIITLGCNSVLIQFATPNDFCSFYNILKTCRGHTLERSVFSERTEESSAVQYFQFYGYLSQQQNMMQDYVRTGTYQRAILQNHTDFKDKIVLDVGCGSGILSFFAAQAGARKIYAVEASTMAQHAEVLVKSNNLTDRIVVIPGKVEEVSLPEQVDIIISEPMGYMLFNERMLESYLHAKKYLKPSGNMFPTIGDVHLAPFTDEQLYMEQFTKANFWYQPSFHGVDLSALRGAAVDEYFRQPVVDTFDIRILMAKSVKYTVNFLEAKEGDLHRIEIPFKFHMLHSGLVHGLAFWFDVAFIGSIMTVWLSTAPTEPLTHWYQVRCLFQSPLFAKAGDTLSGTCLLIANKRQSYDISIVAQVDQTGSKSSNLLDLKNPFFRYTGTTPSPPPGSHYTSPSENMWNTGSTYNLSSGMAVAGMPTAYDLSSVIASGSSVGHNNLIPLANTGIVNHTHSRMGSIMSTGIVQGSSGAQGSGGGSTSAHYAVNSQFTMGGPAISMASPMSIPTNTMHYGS
# Description: To assist in identification of possible protein interactions of our SirT1 enhancers, affinity purification and STRING analysis-based proteomics was used, as described in Supplementary Methods. […] To assess effects of various PRMTs 1, 4, 5, 7 and 8 on SirT1, N2a-E4 cells were transfected with each of these PRMTs as described in Supplementary Methods. […]
# (§1) supernatants were transferred to new tubes and lyophilized. Samples were reconstituted in 100 µL of 50/50/0.1 (Water/Acetonitrile/Formic Acid) prior to analysis via liquid chromatography-tandem mass spectrometry (LC-MS/MS).
# (§2) Normalized chromatographic peak areas was plotted at each time point and the half-life (T1/2) of compound in liver microsomes was determined by using the trendline equation to calculate the time at which compound abundance was 50% of that at timepoint 0 (T0).
# (§3) Kinetic solubility was assessed by separately diluting a test compound solution (10 mM, 100% DMSO) into the aqueous buffer (PBS pH 7.4) and DMSO at 100 μM, 100 μL total volume.
# (§4) The solutions were then incubated at 37°C for 90 min and centrifuged (16000xg, 5 min). An aliquot (50 µL) of each supernatant was analyzed by LC-MS/MS.
# (§5) Five standard concentrations (100, 10, 1, 0.1, and 0, DMSO) in duplicates were incubated at 37°C for 90 min and centrifuged (16000xg, 5 min). Aliquots (50 µL) of supernatant were analyzed by LC-MS/MS to create the standard curve.
# Table S2. […]
# Kinetic solubility = assay type: physicochemical; conditions: aqueous buffer, kinetic from dmso stock, PBS pH 7.4, 37°C
# Description: as §1, §2, §3, §4, §5
# Table S2. DDL-218 Physiochemical Properties
# Kinetic solubility (μM) 64.4
# Brain Tissue Binding [fu,bound (%)] 43 […]
# NFYb mRNA in Kelly cells = test: NFYb mRNA in Kelly neuroblastoma cells; assay type: cell-based, human; conditions: 5 µM, 24 h, vs DMSO
# Description: Human neuroblastoma ‘Kelly’ cells (genotype APOE3/APOE4) were plated in 96-well plates at 50K cells per well and were grown overnight in RPMI 1640 supplemented with 2 mM Glutamine, 10% FBS and 1% Pen-Strep. Cells were treated with 5 µM DDL-214, -218, or -219; or DMSO vehicle (n = 8 per compound). Twenty-four hours later, medium was removed, cells washed and lysed as described above for N2a-E4 cells.
# Total RNA was isolated from cells or brain tissue (Qiagen RNEasy kit). Total RNA (0.5–1.0 µg) mRNA was then converted to cDNA (SuperScript™ III First-Strand Synthesis SuperMix kit; Thermo Fisher), and gene mRNA levels were measured using a gene-specific qRT-PCR Taqman assays (Thermo Fisher). Gene mRNA levels were normalized to GAPDH mRNA levels measured either in the same cDNA sample or in the same qPCR reaction using multiplexing of gene-of-interest/VIC and GAPDH/FAM, normalized by the delta-delta-Ct method.
compound,measurement,setting,value
C#Cc1ccc(CC(C)(C)NC(=O)[C@H](C)N)cc1 [DDL-220],protein interaction found by affinity purification,[1],a protein arginine methyltransferase (PRMT) interacts with DDL-220
CC(N)C(=O)OC(C)(C)Cc1ccncc1 (stereo not drawn) [DDL-218],solubility kinetic at 90 min,Kinetic solubility,64.4 µM
same,NFYb mRNA,NFYb mRNA in Kelly cells,significantly increases NFYb mRNA
